In US9624234B2, “Heterocyclic compounds and methods for their use” (Novartis AG, priority 2012, dated 2017):

Target: AT2 receptor (Homo sapiens (Human), UniProt P50052)
Test: AT2 receptor binding ([125I]-CGP42112A radioligand, HEK293/AT2 receptor membranes)
Conditions: HEK293/AT2 receptor transient transfected cell membranes, RT 1.5 hrs
Method: • 1. Trypsin-EDTA (for preparation of 100 mL) • Trypsin 0.25 g • 2% EDTA 2 mL • PBS 98 mL • Dissolve trypsin in 2% EDTA and PBS completely; sterilize the solution by passing through a […] membrane filter; store at 4° C. • 2. DMEM medium (for preparation of 1 L) • The powder was dissolved into 950 mL of distilled water with gentle stirring until the solution becomes clear. • Add NaHCO3 1.176 g for DMEM medium. • Adjust pH of medium to 0.2-0.3 below final working pH using 1 M NaOH or 1 M HCl. Add slowly with stirring. • Dilute to 1 liter with ddH2O. • Sterilize the medium immediately by filtration. • Store at 4° C. • 3. TE buffer • 20 mM Tris-HCl, pH 7.4, • 5 mM EDTA • 4. Binding Assay Buffer • 50 mM Hepes, pH 7.4 • 5 mM MgCl2 • 1 mM CaCl2 • 0.2% BSA • 5. Wash Buffer • 50 mM Hepes, pH 7.4 Procedures for HEK293/AT2 Receptor Transient Cell Transfection • Cells were plated into 150 mm dish at 50% density for transient transfection. Cells were ready for transfection after overnight incubation (the confluence reaches around 80%). • 75 μL Lipofectamine™2000 diluted in 6.25 mL OptiMEM I Reduced Serum Medium, was mixed gently, and incubated at room temperature for 5 minutes. 50 μg expression plasmid DNA diluted in 6.25 mL OptiMEM I Reduced Serum Medium without serum was mixed gently. • After the 5 minute incubation, the diluted DNA was combined with the diluted Lipofectamine™2000 (total volume is 12.5 mL). The mixture was mixed gently and incubated for 30 minutes at room temperature to allow the DNA-Lipofectamine™2000 complexes to form. • The 12.5 mL DNA-Lipofectamine™2000 complexes were added into the 150 mm dish and mixed gently by rocking the dish back and forth. • The cells were incubated at 37° C. with 5% CO2 for 48 hours. • Cells were collected and stored frozen at −80° C. Procedures for HEK293/AT2 Receptor Cell Membrane Preparation • Frozen HEK293/AT2 receptor (transient transfected) cells were homogenized in ice cold TE buffer for 10 s. • The homogenate was centrifuged at 25,000 g for 30 minutes. • The pellet was resuspended in ice cold tissue buffer. • Protein concentrations were determined using Bradford assay method with BSA as standard. • The membrane protein was frozen under −80° C. Compound Preparation
Solutions of all compounds were prepared by microplate liquid handling equipment such as Janus or Precision 2000. Compounds, dissolved in DMSO were stored in a Freezer. Compounds were prepared from 30 mM in 100% DMSO.
Step 1: Dose Plate Preparation (96 Well Plate)
• Add the 3 μL [30 mM] compound stock to column 1 on the plate. • Add 15 μL of 100% DMSO to column 1. • Add 10.81 μL of 100% DMSO to column 2-12. • Transfer 5 μL from column 1 into column 2 (half log dilution). • Transfer 5 μL from column 2 into column 3 (half log dilution). • Transfer 5 μL from column 3 into column 4 (half log dilution). • Transfer 5 μL from column 4 into column 5 (half log dilution). • Transfer 5 μL from column 5 into column 6 (half log dilution). • Transfer 5 μL from column 6 into column 7 (half log dilution). • Transfer 5 μL from column 7 into column 8 (half log dilution). • Transfer 5 μL from column 8 into column 9 (half log dilution). • Transfer 5 μL from column 9 into column 10 (half log dilution) • Transfer 5 μL from column 10 into column 11 (half log dilution) • Transfer 5 μL from column 11 into column 12 (half log dilution). All the compounds were diluted using Precision 2000 microplate liquid handling equipment. The top concentration of compound was 5 mM with 100% DMSO. Step 2: Working Plate Preparation (96 Well Plate) • Compounds were diluted 50-fold with buffer. • 49 μL buffer was added to the well of 96 well plate. • 1 μL compound solution from dose plate was transferred to the corresponding well of working plate. • The top concentration of compound was 100 μM with 2% DMSO. Step 3: Assay Plate Preparation (96 Well Plate)
15 μL of compound solution was transferred from each well of working plate to the well of assay plate by Janus.

Chain of AT2 receptor (P50052 whole entry, species assumed): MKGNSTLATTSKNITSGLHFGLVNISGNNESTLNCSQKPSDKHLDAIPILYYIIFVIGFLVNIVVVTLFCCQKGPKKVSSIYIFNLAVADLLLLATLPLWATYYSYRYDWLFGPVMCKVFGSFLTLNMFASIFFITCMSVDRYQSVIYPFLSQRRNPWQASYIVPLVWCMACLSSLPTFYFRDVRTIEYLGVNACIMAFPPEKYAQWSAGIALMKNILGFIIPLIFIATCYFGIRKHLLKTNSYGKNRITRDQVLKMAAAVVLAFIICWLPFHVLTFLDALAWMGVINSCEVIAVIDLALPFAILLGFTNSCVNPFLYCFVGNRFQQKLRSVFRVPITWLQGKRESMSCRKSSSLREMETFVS

Structure (SMILES) | IC50
O=C(O)[C@@H]1Cc2c(c3ccccc3n2Cc2ccccc2)CN1C(=O)C(c1ccccc1)c1ccccc1 [Compound 1] | 210 nM
O=C(O)[C@@H]1Cc2c(ccc3c2Oc2ccccc2O3)CN1C(=O)C(c1ccccc1)c1ccccc1 [Compound 9, (S)-3-(2,2-diphenylacetyl)-1,2,3,4-tetrahydrobenzo[5,6][1,4]dioxino[2,3-f]isoquinoline-2-carboxylic acid] | 159 nM
O=C(O)[C@@H]1CC(OCc2ccccc2)CCN1C(=O)C(c1ccccc1)c1ccccc1 (stereo partly drawn) [Compound 26, (2S)-4-(benzyloxy)-1-(2,2-diphenylacetyl)piperidine-2-carboxylic acid] | 218 nM
O=C(O)[C@@H]1C[C@H](OCC#Cc2ccccc2)CCN1C(=O)C(c1ccccc1)c1ccccc1 [Compound 40, (2S,4R)-1-(2,2-diphenylacetyl)-4-((3-phenylprop-2-yn-yl)oxy)piperidine-2-carboxylic acid] | 228 nM
CC#CCN(C)[C@@H]1CCN(C(=O)C(c2ccccc2)c2ccccc2)[C@H](C(=O)O)C1 [Compound 42] | 852 nM
CC#CCN(C)[C@H]1CCN(C(=O)C(c2ccccc2)c2ccccc2)[C@H](C(=O)O)C1 [Compound 43] | 2050 nM
CN(CC#Cc1ccc(F)cc1)[C@@H]1CCN(C(=O)C(c2ccccc2)c2ccccc2)[C@H](C(=O)O)C1 [Compound 46] | 55.9 nM
CN(CC#Cc1ccc(F)cc1)[C@H]1CCN(C(=O)C(c2ccccc2)c2ccccc2)[C@H](C(=O)O)C1 [Compound 47, (2S,4S)-1-(2,2-diphenylacetyl)-4-((3-(4-fluorophenyl)prop-2-yn-1-yl)(methyl)amino)piperidine-2-carboxylic acid] | 1040 nM
CN(CC#CC(C)(C)C)[C@@H]1CCN(C(=O)C(c2ccccc2)c2ccccc2)[C@H](C(=O)O)C1 [Compound 54, (2S,4R)-4-((4,4-dimethylpent-2-yn-1-yl)(methyl)amino)-1-(2,2-diphenylacetyl)piperidine-2-carboxylic acid] | 33.9 nM
O=C(O)[C@@H]1C[C@H](N2CCC[C@H](c3ccccc3)C2)CCN1C(=O)C(c1ccccc1)c1ccccc1 [Compound 55, (2′S,3R,4′R)-1′-(2,2-diphenylacetyl)-3-phenyl-[1,4′-bipiperidine]-2′-carboxylic acid] | 294 nM
O=C(O)[C@@H]1C[C@@H](N2CCC[C@H](c3ccccc3)C2)CCN1C(=O)C(c1ccccc1)c1ccccc1 [Compound 56, (2′S,3R,4′R)-1-(2,2-diphenylacetyl)-3-phenyl-[1,4′-bipiperidine]-2′-carboxylic acid] | 111 nM
O=C(O)[C@@H]1C[C@H](N2CCC[C@@H](c3ccccc3)C2)CCN1C(=O)C(c1ccccc1)c1ccccc1 [Compound 57, (2′S,3S,4′R)-1′-(2,2-diphenylacetyl)-3-phenyl-[1,4′-bipiperidine]-2′-carboxylic acid] | 1440 nM
O=C(O)[C@@H]1C[C@@H](N2CCC[C@@H](c3ccccc3)C2)CCN1C(=O)C(c1ccccc1)c1ccccc1 [Compound 58, (2′S,3S,4′S)-1′-(2,2-diphenylacetyl)-3-phenyl-[1,4′-bipiperidine]-2′-carboxylic acid] | 170 nM

Continued, values first:

IC50 | Structure (SMILES)
5090 nM | CN(CCCc1ccccc1)[C@@H]1CCN(C(=O)C(c2ccccc2)c2ccccc2)[C@H](C(=O)O)C1 [Compound 31, (2S,4R)-1-(2,2-diphenylacetyl)-4-(methyl(phenylpropyl)amino)piperidine-2-carboxylic acid]
108 nM | CN(CC#Cc1ccccc1)[C@@H]1CCN(C(=O)C(c2ccccc2)c2ccccc2)[C@H](C(=O)O)C1 [Compound 32]
2710 nM | CN(CC#Cc1ccccc1)[C@H]1CCN(C(=O)C(c2ccccc2)c2ccccc2)[C@H](C(=O)O)C1 [Compound 33, (2S,4S)-1-(2,2-diphenylacetyl)-4-(methyl(3-phenylprop-2-yn-1yl)amino)piperidine-2-carboxylic acid]
918 nM | CN(CCc1ccccc1)[C@@H]1CCN(C(=O)C(c2ccccc2)c2ccccc2)[C@H](C(=O)O)C1 [Compound 34, (2S,4R)-1-(2,2-diphenylacetyl)-4-(methyl(3-phenethyl)amino)piperidine-2-carboxylic acid]
101 nM | CN(CCc1ccccc1)[C@H]1CCN(C(=O)C(c2ccccc2)c2ccccc2)[C@H](C(=O)O)C1 [Compound 35, (2S,4S)-1-(2,2-diphenylacetyl)-4-(methyl(3-phenethyl)amino)piperidine-2-carboxylic acid]
854 nM | CN(Cc1ccccc1)[C@@H]1CCN(C(=O)C(c2ccccc2)c2ccccc2)[C@H](C(=O)O)C1 [Compound 38, (2S,4R)-4-(benzyl(methyl)amino)-1-(2,2-diphenylacetyl)piperidine-2-carboxylic acid]
648 nM | CN(Cc1ccccc1)[C@H]1CCN(C(=O)C(c2ccccc2)c2ccccc2)[C@H](C(=O)O)C1 [Compound 39, (2S,4S)-4-(benzyl(methyl)amino)-1-(2,2-diphenylacetyl)piperidine-2-carboxylic acid]
101 nM | O=C(O)[C@@H]1C[C@H](OCCCc2ccccc2)CCN1C(=O)C(c1ccccc1)c1ccccc1 [Compound 41, (2S,4R)-1-(2,2-diphenylacetyl)-4-((3-phenylpropyl)oxy)piperidine-2-carboxylic acid]
